Experimental data from US8735414B2 (priority 2009, dated 2014).

What was measured:
[1] = system: bicistronic HCV replicon (replicon RNA, GenBank Accession No. AJ242654); experiment: HCV Replicon Assay; type: cell-based; conditions: Hepatitis C virus, 72 h, read-out: Replicon IC50

| Structure (SMILES) | IC50 [1] [µM] | melting point [°C] |
| --- | --- | --- |
| C[C@H](NS(=O)(=O)c1cnc(-c2c(C#N)c3ccc(C4CC4)cc3n2C2CCC2)nc1)C(F)(F)F [compound 324, 2-(3-cyano-1-cyclobutyl-6-cyclopropyl-1H-indol-2-yl)-N-[(2S)-1,1,1-trifluoropropan-2-yl]pyrimidine-5-sulfonamide] | < 0.5 | 214 to 215 |
| Cc1cc2c(cc1F)c(C#N)c(-c1ccc(S(=O)(=O)N[C@H](C)C(F)(F)F)cn1)n2C1CCC1 [compound 609, 6-(3-cyano-1-cyclobutyl-5-fluoro-6-methyl-1H-indol-2-yl)-N-[(2R)-1,1,1-trifluoropropan-2-yl]pyridine-3-sulfonamide] | < 0.5 | 211 to 214 |
| N#Cc1c(-c2ccc(S(=O)(=O)NC(CF)CF)cn2)n(C2CCCCC2)c2cc(C3CC3)ccc12 [compound 92, 6-(3-cyano-1-cyclohexyl-6-cyclopropyl-1H-indol-2-yl)-N-(1,3-difluoropropan-2-yl)pyridine-3-sulfonamide] | < 0.5 | 193 to 198 |
| CC(NS(=O)(=O)c1ccc(-c2c(C#N)c3ccc(C4CC4)cc3n2C2CCCC2)nc1)C(F)(F)F (centres unmarked) [compound 86, 6-(3-cyano-1-cyclopentyl-6-cyclopropyl-1H-indol-2-yl)-N-(1,1,1-trifluoropropan-2-yl)pyridine-3-sulfonamide] | < 0.5 | 166 to 170 |
| Cc1cc2c(cc1F)c(C(N)=O)c(-c1ccc(S(=O)(=O)N[C@H](C)C(F)(F)F)cn1)n2C1CCCC1 [compound 699, 1-cyclopentyl-5-fluoro-6-methyl-2-(5-{[(2R)-1,1,1-trifluoropropan-2-yl]sulfamoyl}pyridin-2-yl)-1H-indole-3-carboxamide] | < 0.5 | 243 to 245 |
| CCc1cc2c(cc1F)c(C#N)c(-c1ccc(S(=O)(=O)NC(C)(C)C)cn1)n2-c1ccccc1 [compound 884, N-tert-butyl-6-(3-cyano-6-ethyl-5-fluoro-1-phenyl-1H-indol-2-yl)pyridine-3-sulfonamide] | < 0.5 | 175 to 180 |
| Cc1cc2c(cc1F)c(C#N)c(-c1ccc(S(=O)(=O)N[C@@H](C)C(F)(F)F)cn1)n2-c1cc(F)ccn1 [compound 926, 6-[3-cyano-5-fluoro-1-(4-fluoropyridin-2-yl)-6-methyl-1H-indol-2-yl]-N-[(2S)-1,1,1-trifluoropropan-2-yl]pyridine-3-sulfonamide] | < 0.5 | 229 to 233 |
| C[C@H](NS(=O)(=O)c1ccc(-c2c(C#N)c3cc(C#N)ccc3n2C2CCCC2)nc1)C(F)(F)F [compound 346, 6-(3,5-dicyano-1-cyclopentyl-1H-indol-2-yl)-N-[(2S)-1,1,1-trifluoropropan-2-yl]pyridine-3-sulfonamide] | < 0.5 | 225 to 228 |
| C[C@H](NS(=O)(=O)c1ccc(-c2c(C(N)=O)c3c(F)cc(OC(F)F)cc3n2C2CCC2)nc1)C(F)(F)F [compound 825, 1-cyclobutyl-6-(difluoromethoxy)-4-fluoro-2-(5-{[(2S)-1,1,1-trifluoropropan-2-yl]sulfamoyl}pyridin-2-yl)-1H-indole-3-carboxamide] | < 0.5 | 254 to 256 |
| C[C@@H](NS(=O)(=O)c1cnc(-c2c(C#N)c3ccc(OC(F)F)cc3n2C2CCC2)nc1)C(F)(F)F [compound 184, 2-[3-cyano-1-cyclobutyl-6-(difluoromethoxy)-1H-indol-2-yl]-N-[(2R)-1,1,1-trifluoropropan-2-yl]pyrimidine-5-sulfonamide] | < 0.5 | 112 to 114 |
| C[C@H](NS(=O)(=O)c1cnc(-c2c(C#N)c3ccc(CC(F)F)cc3n2C2CCC2)nc1)C1CC1 [compound 592, 2-[3-cyano-1-cyclobutyl-6-(2,2-difluoroethyl)-1H-indol-2-yl]-N-[(1S)-1-cyclopropylethyl]pyrimidine-5-sulfonamide] | < 0.5 | 168 to 175 |
| C[C@@H](NS(=O)(=O)c1ccc(-c2c(C#N)c3cc(F)c(C4CC4)cc3n2C2CCCC2)nc1)C(F)(F)F [compound 662, 6-(3-cyano-1-cyclopentyl-6-cyclopropyl-5-fluoro-1H-indol-2-yl)-N-[(2R)-1,1,1-trifluoropropan-2-yl]pyridine-3-sulfonamide] | < 0.5 | 180 to 181 |
| NC(=O)c1c(-c2ccc(S(=O)(=O)Nc3ccccc3)cn2)n(C2CCC2)c2cc(OC(F)F)c(F)cc12 [compound 798, 1-cyclobutyl-6-(difluoromethoxy)-5-fluoro-2-[5-(phenylsulfamoyl)pyridin-2-yl]-1H-indole-3-carboxamide] | 0.5 to 2 | 204 to 206 |
| Cc1ccc2c(C#N)c(-c3ccc(S(=O)(=O)NC(C)C)cn3)n([C@@H]3CCOC3)c2c1 [compound 55, 6-{3-cyano-6-methyl-1-[(3R)-tetrahydrofuran-3-yl]-1H-indol-2-yl}-N-(propan-2-yl)pyridine-3-sulfonamide] | < 0.5 | 164 to 167 |
| CC(C)n1c(-c2ncc(S(=O)(=O)N[C@@H](C)C(F)(F)F)cn2)c(C#N)c2ccc(Cl)cc21 [compound 418, 2-[6-chloro-3-cyano-1-(propan-2-yl)-1H-indol-2-yl]-N-[(2S)-1,1,1-trifluoropropan-2-yl]pyrimidine-5-sulfonamide] | 0.5 to 2 | 241 to 248 |
| C[C@H](NS(=O)(=O)c1cnc(-c2c(C#N)c3cc(F)ccc3n2C2CCC2)nc1)C(F)(F)F [compound 451, 2-(3-cyano-1-cyclobutyl-5-fluoro-1H-indol-2-yl)-N-[(2S)-1,1,1-trifluoropropan-2-yl]pyrimidine-5-sulfonamide] | < 0.5 | 198 to 203 |
| CCc1cc(OC)c2c(C#N)c(-c3ccc(S(=O)(=O)N[C@@H](C)C(F)(F)F)cn3)n(C3CCC3)c2c1 [compound 858, 6-(3-cyano-1-cyclobutyl-6-ethyl-4-methoxy-1H-indol-2-yl)-N-[(2S)-1,1,1-trifluoropropan-2-yl]pyridine-3-sulfonamide] | 0.5 to 2 | 187 to 188 |
| CC(C)(C)NS(=O)(=O)c1ccc(-c2c(C#N)c3cc(F)c(C4CC4)cc3n2C2CCCC2)nc1 [compound 832, N-tert-butyl-6-(3-cyano-1-cyclopentyl-6-cyclopropyl-5-fluoro-1H-indol-2-yl)pyridine-3-sulfonamide] | < 0.5 | 186 to 188 |
| CC(C)(NS(=O)(=O)c1ccc(-c2c(C#N)c3ccc(CC(F)F)cc3n2C2CCCC2)nc1)C(F)(F)F [compound 596, 6-[3-cyano-1-cyclopentyl-6-(2,2-difluoroethyl)-1H-indol-2-yl]-N-(1,1,1-trifluoro-2-methylpropan-2-yl)pyridine-3-sulfonamide] | < 0.5 | 194 to 199 |
| CCc1cc2c(cc1F)c(C#N)c(-c1cc(C)c(S(=O)(=O)N[C@H](C)C(F)(F)F)cn1)n2-c1ncccn1 [compound 890, 6-[3-cyano-6-ethyl-5-fluoro-1-(pyrimidin-2-yl)-1H-indol-2-yl]-4-methyl-N-[(2R)-1,1,1-trifluoropropan-2-yl]pyridine-3-sulfonamide] | < 0.5 | 231 to 236 |
| N#Cc1c(-c2ccc(S(=O)(=O)NC(CF)CF)cn2)n(C2CCC2)c2cc(OC(F)(F)F)ccc12 [compound 24, 6-[3-cyano-1-cyclobutyl-6-(trifluoromethoxy)-1H-indol-2-yl]-N-(1,3-difluoropropan-2-yl)pyridine-3-sulfonamide] | < 0.5 | 158 to 160 |
| CC(C)n1c(-c2ccc(S(=O)(=O)NC(CF)CF)cn2)c(C#N)c2ccc(Cl)cc21 [compound 63, 6-[6-chloro-3-cyano-1-(propan-2-yl)-1H-indol-2-yl]-N-(1,3-difluoropropan-2-yl)pyridine-3-sulfonamide] | < 0.5 | 200 to 202 |
| CC(C)n1c(-c2ccc(S(=O)(=O)N[C@@H](C)C3CC3)cn2)c(C#N)c2cc(F)ccc21 [compound 604, 6-[3-cyano-5-fluoro-1-(propan-2-yl)-1H-indol-2-yl]-N-[(1S)-1-cyclopropylethyl]pyridine-3-sulfonamide] | < 0.5 | 138 to 143 |
| Cc1ccc2c(c1)c(C#N)c(-c1ccc(S(=O)(=O)NC3(C(F)(F)F)CC3)cn1)n2C1CCC1 [compound 328, 6-(3-cyano-1-cyclobutyl-5-methyl-1H-indol-2-yl)-N-[1-(trifluoromethyl)cyclopropyl]pyridine-3-sulfonamide] | < 0.5 | 193 to 199 |
| CCc1cc2c(cc1F)c(C#N)c(-c1ccc(S(=O)(=O)N[C@@H](C)C(F)(F)F)cn1)n2-c1ncc(C)cn1 [compound 976, 6-[3-cyano-6-ethyl-5-fluoro-1-(5-methylpyrimidin-2-yl)-1H-indol-2-yl]-N-[(2S)-1,1,1-trifluoropropan-2-yl]pyridine-3-sulfonamide] | < 0.5 | 201 to 206 |
| C[C@@H](NS(=O)(=O)c1ccc(-c2c(C#N)c3cc(F)ccc3n2-c2ncccn2)nc1)C(F)(F)F [compound 673, 6-[3-cyano-5-fluoro-1-(pyrimidin-2-yl)-1H-indol-2-yl]-N-[(2R)-1,1,1-trifluoropropan-2-yl]pyridine-3-sulfonamide] | < 0.5 | 202 to 205 |
| Cc1ccc2c(C#N)c(-c3ncc(S(=O)(=O)N[C@@H](C)C(F)(F)F)cn3)n(-c3ccccn3)c2c1 [compound 475, 2-[3-cyano-6-methyl-1-(pyridin-2-yl)-1H-indol-2-yl]-N-[(2S)-1,1,1-trifluoropropan-2-yl]pyrimidine-5-sulfonamide] | < 0.5 | 210 to 212 |
| N#Cc1c(-c2ncc(S(=O)(=O)NC(CF)CF)cn2)n(-c2ccc(F)cc2)c2cc(OC(F)F)ccc12 [compound 477, 2-[3-cyano-6-(difluoromethoxy)-1-(4-fluorophenyl)-1H-indol-2-yl]-N-(1,3-difluoropropan-2-yl)pyrimidine-5-sulfonamide] | < 0.5 | 213 to 216 |
